Data on 15 compounds can be found in US10308648B2, “Inhibitors of cyclin-dependent kinase 7 (CDK7)” (Syros Pharmaceuticals, Inc., priority 2014, dated 2019).

Where a name gives a salt, the structure may show the parent alone.

One assay deals with CDK7 (Homo sapiens (Human), UniProt P50613). Description: CDK7 kinase activity (Life Technologies Adapta kinase assay). The assay is classed as biochemical. Particulars: 10 μM down to 0.514 nM, 3-fold serial dilutions, read-out: CDK7 Inhibition (IC50). The protocol: Compounds of the invention were assayed for CDK7 activity at Life Technologies™ (Grand Island, N.Y.) using their commercially available Adapta® kinase assay services. Test compounds were tested at concentrations ranging from 10 μM down to 0.514 nM in a series of 3-fold serial dilutions. Details of this assay, including substrates used, are available on the Life Technologies web site (http://www.lifetechnologies.com/us/en/home/life-science/drug-discovery/target-and-lead-identification-and-validation/kinasebiology/kinase-activity-assays.html). The results of the assay are shown below in Table 3 where “A” represents a calculated IC50 of less than 100 nM; “B” represents a calculated IC50 of between 100 nM and 1 μM; and “C” represents a calculated IC50 of greater than 1 μM.
Chain of CDK7 (P50613 whole entry): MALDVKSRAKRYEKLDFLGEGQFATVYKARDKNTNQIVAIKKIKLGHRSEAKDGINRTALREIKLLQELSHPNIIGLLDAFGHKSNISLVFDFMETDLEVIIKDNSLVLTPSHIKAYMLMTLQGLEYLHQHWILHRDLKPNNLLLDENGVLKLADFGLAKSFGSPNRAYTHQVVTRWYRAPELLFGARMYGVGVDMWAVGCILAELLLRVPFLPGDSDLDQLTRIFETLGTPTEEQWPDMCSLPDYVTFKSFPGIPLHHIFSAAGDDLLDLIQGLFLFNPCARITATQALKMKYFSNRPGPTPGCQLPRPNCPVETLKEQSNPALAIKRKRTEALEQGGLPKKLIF
Chain of CDK7 (P51946 whole entry partner): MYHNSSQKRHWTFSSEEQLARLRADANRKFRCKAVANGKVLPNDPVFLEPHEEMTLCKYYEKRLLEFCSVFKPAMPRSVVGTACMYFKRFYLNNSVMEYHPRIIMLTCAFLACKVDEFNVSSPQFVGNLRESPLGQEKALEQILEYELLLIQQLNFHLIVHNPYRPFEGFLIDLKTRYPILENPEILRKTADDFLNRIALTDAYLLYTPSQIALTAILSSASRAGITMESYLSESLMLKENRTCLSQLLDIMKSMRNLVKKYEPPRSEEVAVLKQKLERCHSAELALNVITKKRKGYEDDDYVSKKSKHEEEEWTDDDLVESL
Chain of CDK7 (P51948 whole entry partner): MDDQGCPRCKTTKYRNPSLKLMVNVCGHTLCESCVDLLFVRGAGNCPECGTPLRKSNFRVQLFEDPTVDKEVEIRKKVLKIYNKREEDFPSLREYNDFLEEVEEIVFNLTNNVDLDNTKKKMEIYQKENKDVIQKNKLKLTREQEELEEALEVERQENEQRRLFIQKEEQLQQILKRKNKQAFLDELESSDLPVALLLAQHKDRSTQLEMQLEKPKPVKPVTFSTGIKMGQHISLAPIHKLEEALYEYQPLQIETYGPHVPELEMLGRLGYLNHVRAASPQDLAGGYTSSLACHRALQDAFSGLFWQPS

The next assay has as its system Jurkat cells. The assay is described as follows: Inhibition of proliferation of Jurkat cells (CellTiter-Glo). Format: cell-based. Particulars: Homo sapiens, 72 hour proliferation assay. As for the experimental part:
Representative compounds of the invention were tested at different concentrations (from 10 μM to […]; 0.5 log serial dilutions) for their ability to inhibit the proliferation of Jurkat cells. Known CDK inhibitors flavopiridol and triptolide were used as positive controls. Cells were grown in RPMI 1640+10% FBS+1% Glutamax. The cells were supplemented with FBS (Life Technologies) and 100 U·mL^−1 penicillin, 100 μg·mL^−1 streptomycin (Invitrogen) and cultured at 37° C. in a humidified chamber in the presence of 5% CO2. Proliferation assays were conducted over a 72 hour time period. CellTiter-Glo® (Promega Corporation, Madison, Wis. USA) was used to assess the anti-proliferative effects of the compounds following manufacturer's directions and utilizing the reagents supplied with the CellTiter-Glo® kit. In this table, “A” represents an IC50 of less than 500 nM; “B” an IC50 of between 500 nM and 5 μM; and “C” an IC50 of greater than 5 μM.
(In general: In ATP-based viability assays light output follows the ATP content of the culture.)

As a reminder, the IC50 is the concentration needed to halve the response being measured. Regarding `Nc1ccc(C(=O)N[C@H]2C[C@H](O)C[C@@H](Nc3ncc(Cl)c(-c4c[nH]c5ccccc45)n3)C2)cc1` (racemic) [Compound 101, (+/−)-4-amino-N-(3-(5-chloro-4-(1H-indol-3-yl)pyrimidin-2-ylamino)-5-hydroxycyclohexyl)benzamide], the IC50 on CDK7 was less than 100 nM; in the assay on Jurkat cells, 500 to 5000 nM.
As for `Nc1ccc(C(=O)NC2CC(F)CC(Nc3ncc(Cl)c(-c4c[nH]c5ccccc45)n3)C2)cc1` (racemic) [Compound 110, (+/−)-4-amino-N-(3-(5-chloro-4-(1H-indol-3-yl)pyrimidin-2-ylamino)-5-fluorocyclohexyl)benzamide], the IC50 on CDK7 was in the range of 100 to 1000 nM.
The same measure, in the same setting: in the case of `Nc1ccc(C(=O)NC23CC4CC(C2)CC(Nc2ncc(Cl)c(-c5c[nH]c6ccccc56)n2)(C4)C3)cc1` [Compound 100, 4-amino-N-(3-(5-chloro-4-(1H-indol-3-yl)pyrimidin-2-ylamino)tricyclo[3.3.1.1^3,7]decanyl)benzamide] it was greater than 1000 nM.
With `Nc1ccc(C(=O)N[C@H]2CCC[C@@H](Nc3ncc(Cl)c(-c4c[nH]c5ccccc45)n3)C2)cc1` [Compound 102, 4-amino-N-((1S,3R)-3-(5-chloro-4-(1H-indol-3-yl)pyrimidin-2-ylamino)cyclohexyl)benzamide], the figures for the IC50 on CDK7 and with Jurkat cells were 100 to 1000 nM and greater than 5000 nM, respectively.
The like results for `Nc1ccc(C(=O)N[C@H]2CCC[C@@H](Nc3ncc(C4CC4)c(-c4c[nH]c5ccccc45)n3)C2)cc1` [Compound 103, 4-amino-N-((1S,3R)-3-(5-cyclopropyl-4-(1H-indol-3-yl)pyrimidin-2-ylamino)cyclohexyl)benzamide.HCl] were, in that order, 100 to 1000 nM and greater than 5000 nM.
In the same order, the values of `Nc1ccc(C(=O)NC23CCCC(Nc4ncc(Cl)c(-c5c[nH]c6ccccc56)n4)(C2)C3)cc1` [Compound 104, 4-amino-N-(5-(5-chloro-4-(1H-indol-3-yl)pyrimidin-2-ylamino)bicyclo[3.1.1]heptan-1-yl)benzamide] are 100 to 1000 nM and greater than 5000 nM.
The like results for `CN(C)CCCC(=O)Nc1ccc(C(=O)N[C@H]2CCC[C@@H](Nc3ncc(Cl)c(-c4c[nH]c5ccccc45)n3)C2)cc1` [Compound 105, N-((1S,3R)-3-((5-chloro-4-(1H-indol-3-yl)pyrimidin-2-yl)amino)cyclohexyl)-4-(4-(dimethylamino)butanamido)benzamide] were, in that order, less than 100 nM and 500 to 5000 nM.
Regarding `Nc1ccc(NC(=O)[C@H]2CCC[C@@H](Nc3ncc(Cl)c(-c4c[nH]c5ccccc45)n3)C2)cc1` [Compound 106, (1S,3R)—N-(4-aminophenyl)-3-(5-chloro-4-(1H-indol-3-yl)pyrimidin-2-ylamino)cyclohexanecarboxamide], the IC50 at CDK7 is less than 100 nM; in the assay with Jurkat cells, greater than 5000 nM.
On to `N#Cc1cnc(N[C@@H]2CCC[C@H](NC(=O)c3ccc(N)cc3)C2)nc1-c1c[nH]c2ccccc12` [Compound 107, 4-amino-N-((1S,3R)-3-(5-cyano-4-(1H-indol-3-yl)pyrimidin-2-ylamino)cyclohexyl)benzamide], for which the IC50 on CDK7 is less than 100 nM; in the assay on Jurkat cells, less than 500 nM.
The like results for `Nc1ccc(C(=O)N[C@H]2CCC[C@@H](Nc3ncc(Cl)c(-c4cccnc4)n3)C2)cc1` [Compound 108, 4-amino-N-((1S,3R)-3-(5-chloro-4-(pyridin-3-yl)pyrimidin-2-ylamino)cyclohexyl)benzamide] were, in that order, greater than 1000 nM and greater than 5000 nM.
The like results for `Nc1ccc(S(=O)(=O)N[C@H]2CCC[C@@H](Nc3ncc(Cl)c(-c4c[nH]c5ccccc45)n3)C2)cc1` [Compound 109, 4-amino-N-((1S,3R)-3-(5-chloro-4-(1H-indol-3-yl)pyrimidin-2-ylamino)cyclohexyl)benzenesulfonamide] were, in that order, 100 to 1000 nM and 500 to 5000 nM.
In the same order, the values of `Nc1ccc(C(=O)N[C@H]2CCC[C@@H](Nc3ncc(Cl)c(-c4c[nH]c5ccccc45)n3)C2)cc1F` [Compound 111, 4-amino-N-((1S,3R)-3-(5-chloro-4-(1H-indol-3-yl)pyrimidin-2-ylamino)cyclohexyl)-3-fluorobenzamide] are 100 to 1000 nM and greater than 5000 nM.
As to `Nc1ccc(C(=O)N[C@H]2CCC[C@@H](Nc3ncc(Cl)c(-c4c[nH]c5ccccc45)n3)C2)c(F)c1` [Compound 112, 4-amino-N-((1S,3R)-3-(5-chloro-4-(1H-indol-3-yl)pyrimidin-2-ylamino)cyclohexyl)-2-fluorobenzamide], the figures for the IC50 at CDK7 and in the assay with Jurkat cells were 100 to 1000 nM and 500 to 5000 nM, respectively.
In the same order, the values of `NC(=O)C(=O)Nc1ccc(C(=O)N[C@H]2CCC[C@@H](Nc3ncc(Cl)c(-c4c[nH]c5ccccc45)n3)C2)cc1` [Compound 113, N1-(4-(((1S,3R)-3-((5-chloro-4-(1H-indol-3-yl)pyrimidin-2-yl)amino)cyclohexyl)carbamoyl)phenyl)oxalamide] are 100 to 1000 nM and 500 to 5000 nM.
With `Nc1ccc(C(=O)N[C@H]2CCC[C@@H](Nc3nccc(-c4c[nH]c5ccccc45)n3)C2)cc1` [Compound 114, N-((1S,3R)-3-(4-(1H-indol-3-yl)pyrimidin-2-ylamino)cyclohexyl)-4-aminobenzamide], the IC50 at CDK7 was greater than 1000 nM.
